Consider 22 compounds from patent US20220184008A1, “MODULATORS OF INTRACELLULAR CHLORIDE CONCENTRATION” (FONDAZIONE ISTITUTO ITALIANO DI TECNOLOGIA, priority 2019, published 2022).

For one experiment, the target named is T1, NKCC2 (Homo sapiens, UniProt Q13621).
T1 construct: expressed in transfected cells; host or cells: HEK293
T1 sequence (Q13621 1-1099): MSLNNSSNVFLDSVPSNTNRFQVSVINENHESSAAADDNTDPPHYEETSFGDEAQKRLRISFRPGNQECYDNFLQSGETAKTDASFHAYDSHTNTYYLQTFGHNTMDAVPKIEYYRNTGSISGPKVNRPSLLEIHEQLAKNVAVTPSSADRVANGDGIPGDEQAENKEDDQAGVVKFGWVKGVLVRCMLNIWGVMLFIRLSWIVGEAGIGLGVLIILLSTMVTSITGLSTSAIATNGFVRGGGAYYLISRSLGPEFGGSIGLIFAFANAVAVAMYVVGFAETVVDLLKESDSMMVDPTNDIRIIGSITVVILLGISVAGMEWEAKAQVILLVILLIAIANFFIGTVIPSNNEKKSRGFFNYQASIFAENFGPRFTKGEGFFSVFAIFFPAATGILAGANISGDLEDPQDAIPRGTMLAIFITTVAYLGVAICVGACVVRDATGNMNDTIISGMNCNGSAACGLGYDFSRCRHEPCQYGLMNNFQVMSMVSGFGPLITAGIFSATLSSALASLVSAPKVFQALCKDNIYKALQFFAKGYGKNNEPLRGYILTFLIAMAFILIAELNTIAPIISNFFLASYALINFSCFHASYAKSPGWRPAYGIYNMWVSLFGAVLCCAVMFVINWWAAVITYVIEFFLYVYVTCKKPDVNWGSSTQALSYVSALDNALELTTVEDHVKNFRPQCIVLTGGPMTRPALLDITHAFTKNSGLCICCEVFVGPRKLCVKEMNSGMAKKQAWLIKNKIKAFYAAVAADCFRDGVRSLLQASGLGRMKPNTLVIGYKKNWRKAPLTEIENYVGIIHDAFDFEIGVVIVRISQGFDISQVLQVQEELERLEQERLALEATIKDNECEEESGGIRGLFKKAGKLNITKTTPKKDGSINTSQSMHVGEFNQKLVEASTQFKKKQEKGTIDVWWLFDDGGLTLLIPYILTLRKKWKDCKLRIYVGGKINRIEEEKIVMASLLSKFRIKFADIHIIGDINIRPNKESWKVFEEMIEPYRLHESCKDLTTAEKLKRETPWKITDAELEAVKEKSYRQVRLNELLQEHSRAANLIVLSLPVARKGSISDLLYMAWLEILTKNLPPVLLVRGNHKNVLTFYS
As to the kind of experiment: Thallium-based assay in NKCC2-transfected HEK293 cells. It counts as cell-based. The note with it: for inhibition at 10 µM: NKCC2-transfected HEK293, Table 2. From the text:
The Thallium-based assay is a standard assay used to measure activity of potassium transporters, like NKCC2 which is a sodium potassium and chloride co-transporter. The assay consists on the monitoring of the cells upon the application of thallium (which mimic K^+) and consequently NaCl, which entering into cells by NKCC2, activated by the presence of the chloride ions, binds the fluorescent dye, thus determining a fluorescence increase. This assay involves parallel testing in 96 wells for a quick and easy drug screening. In detail, kidney epithelial cells (HEK293) were transfected with NKCC2 transporters, or a mock construct (control). After two days, the cells were loaded with a thallium-sensitive fluorescent dye in a Cl-free medium. After 1 hour of incubation, the inhibitory activity of bumetanide and furosemide (as positive controls) and the new compounds by monitoring fluorescence upon application of thallium (to mimic K) and subsequently NaCl were tested. When entering cells by NKCC2 (activated by the presence of Cl), thallium binds the fluorescent dye and increases fluorescence. […] A decreased fluorescence in the mock-transfected cells treated with bumetanide and furosemide was observed. […] This latter result was used to normalize the fluorescence measurements obtained with the assay. In particular, the ΔF/F0 value of the mock-transfected cells (both control and treated) was subtracted from the respective ΔF/F0 value of the cells transfected with the Cl transporters. With this assay, the novel chemical entities were tested for their ability to block NKCC2 (Results in Table 2).
The arrow indicates the addition of thallium (final concentration 2 mM) and NaCl stimulus (135 mM) used to initiate the flux assay. b) Quantification of the effect of bumetanide, furosemide and 3 example compounds (3.8, 3.13, 3.17) in the thallium-based assay on NKCC2-transfected HEK293 cells. Data represents mean±sem from 5 independent experiments, and they are represented as % of the controls. *P<0.05, **P<0.01, ***P<0.001 Kruskal-Wallis Anova (Dunn's Post hoc Test); ###P<0.001 two-tailed unpaired Student t-test.

The subject of a further experiment is NKCC1. Briefly: Calcium kinetic assay in primary cultures of immature hippocampal neurons. It counts as cell-based. The note with it: for NKCC1 Inhibition % 10 μM Neurons Calcium kinetic assay: immature neurons 3 DIV. The procedure: FIG. 2: In vitro testing of the NKCC1 inhibitors in a calcium kinetic assay. a) Example traces of fluorescence levels upon application of GABA (100 μM) and KCl (90 mM) used to trigger calcium influx in primary neuronal cultures treated after 3 days in culture (3 DIV) with vehicle, bumetanide, furosemide and compounds 3.8, 3.13 and 3.17 in the calcium kinetic assay. b) Quantification of the average fluorescence increase upon GABA application normalized to the increase upon KCl application in neurons treated with bumetanide, furosemide and 3 exemplary compounds (3.8, 3.13, 3.17) (10 μM, 100 μM). Data represents mean±sem from 5 independent experiments, and they are presented as % of the control. *P<0.05, **P<0.01, ***P<0.001 Kruskal-Wallis Anova (Dunn's Post hoc Test).
Next, the compounds of the invention were tested for their ability to revert the depolarizing GABAergic signaling in immature neurons. This effect was indirectly measured as calcium influx into the cells with an in vitro calcium kinetic assay in primary cultures of hippocampal neurons. The calcium kinetic assay exploits the physiological, endogenous, high expression of NKCC1 in immature neurons, which causes depolarizing actions of GABA and can activate voltage-gated Ca^2+ channels. Thus, in immature neurons, a compound that blocks NKCC1 is predicted to inhibit Ca^2+ responses upon GABA application. Immature neurons were cultured for 3 days in vitro (3 DIV) and loaded for 15 min with a calcium-sensitive dye (Fluo4). Then, the neurons were treated with bumetanide and furosemide (as positive controls) or with each of the selected compounds for 15 min. As a functional readout, the fluorescence level was monitored in these cultures before and after application of GABA (100 μM, for 20 sec). To test for neuronal viability at the end of the experiment, KCl was applied (90 mM, for 40 sec), which strongly depolarizes neurons, causing high activation of voltage-gated Ca^2+ channels in live cells. To quantify how bumetanide, furosemide, and selected compounds influenced NKCC1 inhibition, the fluorescence values were normalized upon GABA application to the fluorescence levels upon KCl application in treated neurons.

`CCCCNc1cc(C(=O)O)cc(S(N)(=O)=O)c1Oc1ccccc1` [Bumetanide, reference compound] had an inhibition at 10 µM against NKCC2 of 99%. In addition, the “ion flux and consequent increase in fluorescence in NKCC2-transfected cells” value on NKCC2 (pre-incubation 10 μM) is reported as “significantly reduced”. The “NKCC1 Inhibition % 10 μM Neurons Calcium kinetic assay” value with NKCC1 (Table 1) and in the experiment on NKCC1 (Table 2) was 52% in each case. Besides, the “fluorescence increase upon GABA application compared with vehicle (DMSO)-treated controls” value in the experiment with NKCC1 (GABA 100 μM, normalized to KCl) is “significantly reduced”. On to `CCCCNc1ccc([N+](=O)[O-])cc1S(N)(=O)=O` [Compound 1.6, 2-(butylamino)-5-nitro-benzenesulfonamide], for which the inhibition at 10 µM at NKCC2 is 4%. `CCCCCCNc1ccc([N+](=O)[O-])cc1S(N)(=O)=O` [Compound 1.7, 2-(hexylamino)-5-nitro-benzenesulfonamide] came in with an inhibition at 10 µM on NKCC2 of 10%. Also, the “NKCC1 Inhibition % 10 μM Neurons Calcium kinetic assay” value in the experiment with NKCC1 (Table 1) and with NKCC1 (Table 2) was 36% each time. With `CCCCCCCCNc1ccc([N+](=O)[O-])cc1S(N)(=O)=O` [Compound 1.8, 5-nitro-2-(octylamino)benzenesulfonamide], at 10 µM the inhibition on NKCC2 was 10%. The compound `CC(C)(C)CCNc1ccc([N+](=O)[O-])cc1S(N)(=O)=O` [Compound 1.9, 2-(3,3-dimethylbutylamino)-5-nitro-benzenesulfonamide] came in with an inhibition at 10 µM on NKCC2 of 0%. On the same count and under the same terms, for `CCCCNc1ccc([N+](=O)[O-])cc1S(=O)(=O)NC` [Compound 1.10, 2-(butylamino)-N-methyl-5-nitro-benzenesulfonamide] the value was 0%. Still for that read-out and setting: in the case of `CCCCCCNc1ccc([N+](=O)[O-])cc1S(=O)(=O)NC` [Compound 1.11, 2-(hexylamino)-N-methyl-5-nitro-benzenesulfonamide] it was 0%; in that of `CCCCCCCCNc1ccc([N+](=O)[O-])cc1S(=O)(=O)NC` [Compound 1.12, N-methyl-5-nitro-2-(octylamino)benzenesulfonamide], 0%. On the same count and under the same terms, in the case of `CNS(=O)(=O)c1cc([N+](=O)[O-])ccc1NCCC(C)(C)C` [Compound 1.13, 2-(3,3-dimethylbutylamino)-N-methyl-5-nitro-benzenesulfonamide] it was 0%; in that of `CCCCNc1ccc([N+](=O)[O-])cc1S(=O)(=O)N(C)C` [Compound 1.14, 2-(butylamino)-N,N-dimethyl-5-nitro-benzenesulfonamide], 0%. Regarding `CCCCCCNc1ccc([N+](=O)[O-])cc1S(=O)(=O)N(C)C` [Compound 1.15, 2-(hexylamino)-N,N-dimethyl-5-nitro-benzenesulfonamide], at NKCC2, the inhibition at 10 µM stood at 0%.

`CCCCCCCCNc1ccc([N+](=O)[O-])cc1S(=O)(=O)N(C)C` [Compound 1.16, N,N-dimethyl-5-nitro-2-(octylamino)benzenesulfonamide]: the inhibition at 10 µM against NKCC2 was 0%. At NKCC2, `CN(C)S(=O)(=O)c1cc([N+](=O)[O-])ccc1NCCC(C)(C)C` [Compound 1.17, 2-(3,3-dimethylbutylamino)-N,N-dimethyl-5-nitro-benzenesulfonamide] returned an inhibition at 10 µM of 13%. As to `CCCCNc1cc(Cl)c(C(=O)O)cc1S(N)(=O)=O` [Compound 2.2, 4-(butylamino)-2-chloro-5-sulfamoyl-benzoic acid], at 10 µM the inhibition against NKCC2 was 0%. Also, the “NKCC1 Inhibition % 10 μM Neurons Calcium kinetic assay” value in the experiment on NKCC1 (Table 1) and in the experiment on NKCC1 (Table 2) was 2% each time. On NKCC2, `CCCCCCNc1cc(Cl)c(C(=O)O)cc1S(N)(=O)=O` [Compound 2.3, 2-chloro-4-(hexylamino)-5-sulfamoyl-benzoic acid] showed an inhibition at 10 µM of 14%.

On to `CCCCCCCCNc1cc(Cl)c(C(=O)O)cc1S(N)(=O)=O` [Compound 2.4, 2-chloro-4-(octylamino)-5-sulfamoyl-benzoic acid], for which, at NKCC2, at 10 µM the inhibition was 16%.

Take `CC(C)(C)CCNc1cc(Cl)c(C(=O)O)cc1S(N)(=O)=O` [Compound 2.5, 2-chloro-4-(3,3-dimethylbutylamino)-5-sulfamoyl-benzoic acid]: at NKCC2, the inhibition at 10 µM was 0%. For `CCCCNc1ccc(C(=O)O)cc1S(N)(=O)=O` [Compound 2.6, 4-(butylamino)-3-sulfamoyl-benzoic acid], the inhibition at 10 µM against NKCC2 amounted to 0%. Also, the “NKCC1 Inhibition % 10 μM Neurons Calcium kinetic assay” value with NKCC1 (Table 1) and in the experiment with NKCC1 (Table 2) was 14% throughout. Turning to `CCCCCCNc1ccc(C(=O)O)cc1S(N)(=O)=O` [Compound 2.7, 4-(hexylamino)-3-sulfamoyl-benzoic acid], on NKCC2, the inhibition at 10 µM was found to be 0%. Also, the “NKCC1 Inhibition % 10 μM Neurons Calcium kinetic assay” value with NKCC1 (Table 1) and with NKCC1 (Table 2) was 10% in each case. On NKCC2, `CCCCCCCCNc1ccc(C(=O)O)cc1S(N)(=O)=O` [Compound 2.8, 4-(octylamino)-3-sulfamoyl-benzoic acid] showed an inhibition at 10 µM of 0%. Further, the “NKCC1 Inhibition % 10 μM Neurons Calcium kinetic assay” value in the experiment on NKCC1 (Table 1) and in the experiment with NKCC1 (Table 2) was 3% in each case. Compound `CC(C)(C)CCNc1ccc(C(=O)O)cc1S(N)(=O)=O` [Compound 2.9, 4-(3,3-dimethylbutylamino)-3-sulfamoyl-benzoic acid] showed an inhibition at 10 µM on NKCC2 of 23%. Further, the “NKCC1 Inhibition % 10 μM Neurons Calcium kinetic assay” value with NKCC1 (Table 1) and with NKCC1 (Table 2) was 25% in each case. With `CCCCNc1ccc(C(=O)O)cc1S(=O)(=O)NC` [Compound 3.6, 4-(butylamino)-3-(methylsulfamoyl)benzoic acid], on NKCC2, testing at 10 µM gave an inhibition of 22%. Also, the “NKCC1 Inhibition % 10 μM Neurons Calcium kinetic assay” value in the experiment with NKCC1 (Table 1) and with NKCC1 (Table 2) was 6% throughout.

Usually inhibition stands for how much of the control response was suppressed.
